Consider 10 compounds from patent US12157746B2, “Tetrahydro-1H-pyrazino[2,1-a]isoindolylquinoline compounds for the treatment of autoimmune disease” (F. HOFFMANN-LA ROCHE AG, priority 2018, dated 2024).

This test concerns the target T1, human TLR9 (Homo sapiens, UniProt Q9NR96).
T1 sequence (Q9NR96 26-1032): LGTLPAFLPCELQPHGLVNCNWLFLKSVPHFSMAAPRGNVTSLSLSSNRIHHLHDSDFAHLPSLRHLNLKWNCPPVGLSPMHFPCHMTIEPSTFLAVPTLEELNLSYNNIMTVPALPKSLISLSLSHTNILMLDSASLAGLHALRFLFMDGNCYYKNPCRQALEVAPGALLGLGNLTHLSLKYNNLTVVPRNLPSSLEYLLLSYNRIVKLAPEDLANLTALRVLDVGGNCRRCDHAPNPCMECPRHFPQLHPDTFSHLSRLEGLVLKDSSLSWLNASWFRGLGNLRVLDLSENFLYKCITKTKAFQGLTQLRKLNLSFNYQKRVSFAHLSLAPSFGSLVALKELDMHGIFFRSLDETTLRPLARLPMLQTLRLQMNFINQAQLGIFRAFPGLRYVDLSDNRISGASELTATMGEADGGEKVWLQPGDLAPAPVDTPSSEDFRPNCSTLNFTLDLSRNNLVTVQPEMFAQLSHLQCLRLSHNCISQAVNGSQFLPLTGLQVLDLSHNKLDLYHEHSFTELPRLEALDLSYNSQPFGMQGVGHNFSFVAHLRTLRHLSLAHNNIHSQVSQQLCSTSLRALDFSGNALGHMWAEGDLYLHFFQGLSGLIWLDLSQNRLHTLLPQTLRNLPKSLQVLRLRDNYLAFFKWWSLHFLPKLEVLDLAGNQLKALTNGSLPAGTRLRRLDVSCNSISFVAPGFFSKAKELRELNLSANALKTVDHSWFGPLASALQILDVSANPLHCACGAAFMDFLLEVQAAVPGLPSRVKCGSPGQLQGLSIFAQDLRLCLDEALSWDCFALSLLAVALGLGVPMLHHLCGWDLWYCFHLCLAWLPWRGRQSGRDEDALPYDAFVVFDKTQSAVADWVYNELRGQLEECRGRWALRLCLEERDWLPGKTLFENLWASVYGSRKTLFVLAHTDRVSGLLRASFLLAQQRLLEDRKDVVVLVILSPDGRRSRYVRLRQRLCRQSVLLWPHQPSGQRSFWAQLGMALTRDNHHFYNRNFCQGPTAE
The test can be described thus: HEK293-Blue-hTLR-9 cells assay. The conditions noted are these: HEK293-Blue-hTLR9 cells, ODN2006 stimulation, 20 hrs, SEAP reporter; read-out: HEK/hTLR9 IC50. The test is classed as cell-based. In outline:
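Antagonist mode in HEK293-Blue hTLR9 reporter cells (SEAP under NF-κB/AP-1 sites), stimulated with ODN2006 added from a 20 uM solution. Serially diluted compound (1% DMSO final) was incubated 20 hrs at 37° C. Supernatant SEAP was developed with QUANTI-Blue for 2 h at 37° C and read at 620˜655 nm.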
Consider `C[C@@H]1CN(c2ccc(C#N)n3nccc23)C[C@@H]2c3ccc(N4CCNCC4)cc3CN12` [Example 5, 4-[(4R,10bS)-4-methyl-8-piperazin-1-yl-3,4,6,10b-tetrahydro-1H-pyrazino[2,1-a]isoindol-2-yl]pyrazolo[1,5-a]pyridine-7-carbonitrile], for which the IC50 was found to be 133 nM.

`C[C@@H]1CN(c2ccc(C#N)c3ncccc23)C[C@@H]2c3ccc(N4CC5(CN(C)C5)C4)cc3CN12` [Example 38, 5-[(4R,10bS)-4-methyl-8-(6-methyl-2,6-diazaspiro[3.3]heptan-2-yl)-3,4,6,10b-tetrahydro-1H-pyrazino[2,1-a]isoindol-2-yl]quinoline-8-carbonitrile]: the IC50 is 66.8 nM. Consider `C[C@@H]1CN(c2ccc(C#N)c3ncccc23)C[C@@H]2c3ccc(N4CCNC[C@@H]4CO)cc3CN12` [Example 10, 5-[(4R,10bS)-8-[(2R)-2-(hydroxymethyl)piperazin-1-yl]-4-methyl-3,4,6,10b-tetrahydro-1H-pyrazino[2,1-a]isoindol-2-yl]quinoline-8-carbonitrile], for which the IC50 stood at 92.5 nM. As for `C[C@@H]1CN(c2ccc(C#N)n3nccc23)C[C@@H]2c3ccc(N4C[C@@H](N)[C@H](O)C4)cc3CN12` [Example 110, 4-[(4R,10bS)-8-[(3R,4R)-3-amino-4-hydroxy-pyrrolidin-1-yl]-4-methyl-3,4,6,10b-tetrahydro-1H-pyrazino[2,1-a]isoindol-2-yl]pyrazolo[1,5-a]pyridine-7-carbonitrile], the IC50 is 53 nM. For the compound `C[C@@H]1CN(c2ccc(C#N)c3ncccc23)C[C@@H]2c3ccc(N4C[C@H](N)[C@@](C)(O)C4)cc3CN12` [Example 45B, 5-[(4R,10bS)-8-[(3S,4S)-4-amino-3-hydroxy-3-methyl-pyrrolidin-1-yl]-4-methyl-3,4,6,10b-tetrahydro-1H-pyrazino[2,1-a]isoindol-2-yl]quinoline-8-carbonitrile], the IC50 is 74.1 nM. Turning to `C[C@@H]1CN(c2ccc(C#N)c3ncccc23)C[C@@H]2c3ccc(NCCN(C)C)cc3CN12` [Example 26, 5-[(4R,10bS)-8-[2-(dimethylamino)ethylamino]-4-methyl-3,4,6,10b-tetrahydro-1H-pyrazino[2,1-a]isoindol-2-yl]quinoline-8-carbonitrile], the IC50 was found to be 55.8 nM. For `N#Cc1ccc(N2CCN3Cc4cc(N5CCNCC5)ccc4C3C2)c2scnc12` (stereo not shown) [Example 4, 7-(8-piperazin-1-yl-3,4,6,10b-tetrahydro-1H-pyrazino[2,1-a]isoindol-2-yl)-1,3-benzothiazole-4-carbonitrile], the IC50 was 101 nM. To `C[C@@H]1CN(c2ccc(C#N)c3ncccc23)C[C@@H]2c3ccc(N4C[C@H]5NCCO[C@@H]5C4)cc3CN12` [Example 44, 5-[(4R,10bS)-4-methyl-8-[(4aR,7aR)-3,4,4a,5,7,7a-hexahydro-2H-pyrrolo[3,4-b][1,4]oxazin-6-yl]-3,4,6,10b-tetrahydro-1H-pyrazino[2,1-a]isoindol-2-yl]quinoline-8-carbonitrile] belongs 102 nM; to `CO[C@H]1CN(c2ccc3c(c2)CN2C3CN(c3ccc(C#N)c4ncccc34)C[C@H]2C)C[C@@H]1N` (single isomer, unassigned) [Example 16A], 113 nM; to `C[C@@H]1CN(c2ccc(C#N)n3nccc23)C[C@@H]2c3ccc(N4CCOC[C@H](N)C4)cc3CN12` [Example 101, 4-[(4R,10bS)-8-[(6R)-6-amino-1,4-oxazepan-4-yl]-4-methyl-3,4,6,10b-tetrahydro-1H-pyrazino[2,1-a]isoindol-2-yl]pyrazolo[1,5-a]pyridine-7-carbonitrile], 165 nM.
